Our source for the GI50 and TGI values is PubChem BioAssay (NCI).

Assay in all cases: NCI tumour cell line growth inhibition, 48 h
Assay [1] deals with CAKI-1 renal.
The subject of assay [2] is COLO 205 colon.
Assay [3] has as its system HT29 colon.
Assay [4] has as its system IGROV1 ovarian.
Assay [5] deals with MOLT-4 leukemia.
Assay [6] relates to OVCAR-3 ovarian.
In assay [7] the test system is SF-539 CNS.
In assay [8] the test system is SK-MEL-2 melanoma.
For assay [9], the system named is SK-MEL-28 melanoma.
The subject of assay [10] is SK-MEL-5 melanoma.

Several values for one entry are separate records, joined by “and”; a condition that tells them apart may be missing. Equal values may be shown once.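 Assay format: 96-well plates, 48-hour exposure. GI50: concentration for 50% inhibition of growth. TGI marks complete inhibition of growth.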 Some results are limits rather than exact numbers.

Regarding `Cc1nc2ccccn2c1NC(=O)NN1C(=O)CSC1c1ccc(Cl)cc1` (stereo not drawn), the GI50 in assay [1], in assay [2], in assay [3], in [4], in assay [5] and in assay [6] was more than 100 µM throughout. The GI50 in assay [7], in assay [8], in assay [9] and in assay [10] was more than 100 µM in each case. Further, the TGI in assay [1], in assay [2], in assay [3], in assay [4], in [5] and in [6] was more than 100 µM throughout. In addition, the TGI in assay [7], in [8], in assay [9] and in assay [10] was more than 100 µM in each case.

Regarding `O=C(CCC(=O)Nc1ccccc1C(F)(F)F)N/N=C1\C(=N\NC(=O)CCC(=O)Nc2ccccc2C(F)(F)F)C(c2ccc3c(c2)OCO3)Oc2ccccc21` (stereo not drawn), the TGI in assay [1] is 98 µM; in [2], more than 100 µM; in assay [3], more than 100 µM; in [4], more than 100 µM; in assay [5], more than 100 µM; in [6], more than 100 µM. For the same compound, the TGI in assay [7] was 54.6 µM; in assay [8], more than 100 µM; in assay [9], more than 100 µM; in assay [10] it was more than 100 µM.

With `Clc1ccc(-c2cc(-c3ccccc3)nc(N3CCN(CCCNc4ccnc5cc(Cl)ccc45)CC3)n2)cc1`, the GI50 was 1.66 µM in assay [1]; 1.87 µM in assay [2]; 0.464 µM in [3]; 1.45 µM in assay [4]; 1.22 µM in [5]; 1.55 µM in assay [6]. Moreover, the GI50 in [7] is 1.79 µM; in assay [8], 1.82 µM; in assay [9], 1.72 µM; in [10], 1.67 µM. The TGI in [1] was 3.13 µM; in [2] it was 3.7 µM; in [3] it was 1.76 µM; in assay [4], 2.89 µM; in assay [5], 4.35 µM; in [6], 2.98 µM. The TGI stood at 3.25 µM in assay [7], 3.39 µM in assay [8], 3.14 µM in assay [9] and 3.06 µM in assay [10].

For the compound `CC(=O)NNc1nc(C)c(C(=O)NNC(=O)C(=O)Nc2ccc(Cl)c([N+](=O)[O-])c2)s1`, the TGI is more than 100 µM in assay [1]; more than 100 µM in assay [2]; more than 100 µM in [3]; more than 100 µM in [4]; 54.6 µM in [5]; 80.8 µM in [6]. Further, the TGI in [7], in [8], in assay [9] and in assay [10] was more than 100 µM each time.

Regarding `Cc1cccc2c(C3=C(c4cn(C)c5ccccc45)C(=O)NC3=O)cn(C)c12`, the GI50 in assay [1] was more than 19.1 µM; in assay [2] it was more than 16.9 µM; in [3], more than 13.8 µM; in [4] it was 25 µM; in assay [5] it was more than 25 µM; in assay [6] it was 9.33 µM. Also, the GI50 in [7] is 19.1 µM; in assay [8], 24.3 µM; in [9], 17.5 µM; in [10] it was more than 22.2 µM. Further, the TGI in assay [1], in assay [2], in assay [3], in assay [4], in assay [5] and in assay [6] was more than 25 µM each time. The TGI in assay [7], in assay [8], in [9] and in assay [10] was more than 25 µM throughout.

Regarding `CN(C)c1ccc(C(=S)c2ccc(N(C)C)cc2)cc1`, the GI50 is 6.15 µM in [1]; 6.83 µM in assay [2]; 3.79 µM in assay [3]; 6.29 µM in [4]; 6.35 µM in [5]; 3.93 µM in assay [6]. For the same compound, the GI50 in [7] is 7.1 µM; in assay [8], 3.53 µM; in assay [9], 7.59 µM; in assay [10], 3.45 µM. The TGI in assay [1] is more than 100 µM; in assay [2], 59 µM; in [3], more than 100 µM; in assay [4], more than 100 µM; in assay [5] it was more than 100 µM; in assay [6] it was more than 100 µM. Also, the TGI in [7] was 56.4 µM; in assay [8] it was 15.2 µM; in assay [9], more than 100 µM; in assay [10], 20.6 µM.

Regarding `O=C1c2c(O)cccc2C(C(=O)CCCCCC(=O)C2c3cccc(O)c3C(=O)c3c(O)cccc32)c2cccc(O)c21`, the GI50 in assay [1] is 10.6 µM; in assay [2], 7.8 µM; in assay [3] it was 11.8 µM; in assay [4], 12.5 µM; in [5], 10.8 µM; in [6], 1.73 µM. Also, the GI50 in assay [7] was 6.64 µM; in assay [8] it was 1.83 µM; in assay [9], 7.4 µM; in assay [10], 7.96 µM. The TGI in assay [1] is 10.2 µM and 19.9 µM; in assay [2] it was 25 µM and 15.5 µM; in [3], 11.4 µM and 23.1 µM; in assay [4] it was 6.13 µM and 28.6 µM; in assay [5], 25 µM and 27.6 µM; in assay [6], 3.19 µM and 5.98 µM. Moreover, the TGI in [8] was 3.61 µM and 6.64 µM; in [9], 4.63 µM and 14.8 µM.

Turning to `NCCOc1ccc(/C(=C(/Cl)c2ccccc2)c2ccccc2)cc1`, the TGI in assay [1] came to 23.2 µM; in assay [2] it was 3.59 µM; in assay [3], 7.81 µM; in assay [4], 29.9 µM; in [5], 14.7 µM; in assay [6], 26.2 µM. Also, the TGI in [7] was found to be 28.9 µM; in [8], 29.1 µM; in assay [9], 18.6 µM; in assay [10] it was 22.3 µM.
